Assay results published in patent publication US8058068B2, “Peptide-enhanced transfections” (Life Technologies Corporation, priority 1995, dated 2011).
Ends that are not written are not given here. Sp‑5‑CO = N-terminal spermine conjugate

Columns and labels:
NIH/3T3 cells = assay type: cell-based; details: peak activity
Description: Two versions of the Tat peptide were synthesized: one with the DNA-binding group carboxyspermine on the N-terminus and one without. The core TAT sequence employed was […] [SEQ ID NO:123]. The ability of the TAT peptide and the carboxyspermine-modified TAT peptide to enhance cationic lipid-mediated transfection was tested.
Transfection was performed in NIH/3T3 cells, in 24-well plates. Seeding density was 6×10^4 cells/well. For each condition, the standard PLUS protocol was used (see example 3) for complexing. All complexes were prepared in OptiMEM reduced serum media. Cells were harvested and assayed for β-galactosidase acivity in the soluble extracts by luminescent assay (see example 8). […] A clear enhancement is seen.

CHO-K1 cells [1] = test: Receptor-ligand proteins with Sp-NLSNLS in DNA pre-complexes, lipid transfection, β-galactosidase assay; details: DNA precomplexed with Sp-NLSNLS and the ligand protein(s)
Description: (§1) In separate experiments, CHO-K1 cells were seeded at 6×10^4 cells/well, and human fibroblasts were seeded at 8×10^4 cells/well in 24-well plates in DMEM supplemented with 10% fetal bovine serum and allowed to grow overnight.

Human fibroblasts [2] = test: as above
Description: as §1

COS-7 cells = test: Dendrimer-mediated and Lipofectamine transfection +/- peptides, luciferase assay; assay type: cell-based; details: K16NLS (peak 2) 1, Sp-NLSNLS 1.5, NLS 20 μg/well
NIH3T3 cells = test: Transfection by polycationic lipid reagents other than DOSPA-DOPE +/- Sp-NLSNLS, b-galactosidase assay; assay type: cell-based; details: 24 h
CHO-K1 cells [3] = test: as above; assay type: cell-based; details: 24 h
Human fibroblasts [4] = test: as above; assay type: cell-based; details: 24 h
K562 cells = assay type: cell-based, human
Jurkat cells = assay type: cell-based, human
Human fibroblasts [5] = assay type: cell-based
[6] = “LIPOFECTIN”, DNA precomplexed with Sp-NLSNLS and the ligand protein(s)
[7] = Transfection Agent Arg DMER 3 μg/well, chloroquine
[8] = Transfection Agent G7 (EDA) 3 μg/well, chloroquine
[9] = Transfection Agent G9 (EDA) 3 μg/well, chloroquine
[10] = Transfection Agent Lipofectamine 1 μL/well
[11] = Transfection Agent Lys DMER 3 μg/well, chloroquine
[12] = Transfection Agent “COMB BURST” 3 μg/well, chloroquine
[13] = polycationic lipid with DNA alone

CGYGRKKRRQRRRG [TAT]
ng b-Gal per cm2 (NIH/3T3 cells): 0.1 ng b-Gal per cm2
ng b-Gal per ug Protein (NIH/3T3 cells): 0.00 ng b-Gal per ug Protein

Insulin: receptor-ligand protein
Peak activity (ng β-gal/cm^2) (CHO-K1 cells [1]; […]): 452 ng β-gal/cm^2
Peak activity (ng β-gal/cm^2) (CHO-K1 cells [1]; “LIPOFECTIN”): 31 ng β-gal/cm^2
Peak activity (ng β-gal/cm^2) (Human fibroblasts [2]; DMRIE-DOPE, DNA precomplexed with Sp-NLSNLS and the ligand protein): 20.7 ng β-gal/cm^2
Peak activity (ng β-gal/cm^2) (Human fibroblasts [2]; [6]): 22.7 ng β-gal/cm^2

GYGPKKKRKVGG [NLS, nuclear localization signal of SV40 large T antigen]
RLU (luciferase) (COS-7 cells; [7]): 84209 RLU
RLU (luciferase) (COS-7 cells; [8]): 2749 RLU
RLU (luciferase) (COS-7 cells; [9]): 1747 RLU
RLU (luciferase) (COS-7 cells; [10]): 224029 RLU
RLU (luciferase) (COS-7 cells; [11]): 17689 RLU
RLU (luciferase) (COS-7 cells; [12]): 29639 RLU

tetramethyldioleyl spermine [TMDOS]
Peak activity, Lipid + SpNLSNLS (NIH3T3 cells; DNA precomplexed to Sp-NLSNLS): 1.3 ng b-gal/cm^2
Peak activity, Lipid alone (NIH3T3 cells; [13]): 0.2 ng b-gal/cm^2
Peak activity, Lipid + SpNLSNLS (CHO-K1 cells [3]; DNA precomplexed to Sp-NLSNLS): 2.9 ng b-gal/cm^2
Peak activity, Lipid alone (CHO-K1 cells [3]; [13]): 1.4 ng b-gal/cm^2
Peak activity, Lipid + SpNLSNLS (Human fibroblasts [4]; DNA precomplexed to Sp-NLSNLS): 0.1 ng b-gal/cm^2
Peak activity, Lipid alone (Human fibroblasts [4]; [13]): 0.01 ng b-gal/cm^2

Transferrin: receptor-ligand protein
Peak activity (ng β-gal/cm^2) (CHO-K1 cells [1]; […]): 433 ng β-gal/cm^2
Peak activity (ng β-gal/cm^2) (CHO-K1 cells [1]; “LIPOFECTIN”): 44 ng β-gal/cm^2
Peak activity (ng β-gal/cm^2) (Human fibroblasts [2]; […], DNA precomplexed with Sp-NLSNLS and the ligand protein(s)): 24.5 ng β-gal/cm^2
Peak activity (ng β-gal/cm^2) (Human fibroblasts [2]; [6]): 30.6 ng β-gal/cm^2

GLFEAIAEFIEGGWEGLIEG [E5, hemagglutinin peptide, modification of FluHa]
Enhancement-Fold (DMRIE-C transfections at peak activity) (K562 cells): 3 Fold
Enhancement-Fold (DMRIE-C transfections at peak activity) (Jurkat cells): 1.2 Fold

K16GGCGYGPKKKRKVGG [K16NLS (peak 2)]
Enhancement-Fold (DMRIE-C transfections at peak activity) (K562 cells): 1 Fold
Enhancement-Fold (DMRIE-C transfections at peak activity) (Jurkat cells): 1 Fold
RLU (luciferase) (COS-7 cells; [7]): 63307 RLU
RLU (luciferase) (COS-7 cells; [8]): 3423 RLU
RLU (luciferase) (COS-7 cells; [9]): 2297 RLU
RLU (luciferase) (COS-7 cells; [10]): 164105 RLU
RLU (luciferase) (COS-7 cells; [11]): 20847 RLU
RLU (luciferase) (COS-7 cells; [12]): 28562 RLU

Sp-5-CO-GGYGPKKKRKVGGGGYGPKKKRKVGG ({Sp‑5‑CO}-GGYGPKKKRKVGGGGYGPKKKRKVGG) [Sp-NLSNLS, the peptide NLSNLS conjugated to spermine]
RLU (luciferase) (COS-7 cells; [7]): 56548 RLU
RLU (luciferase) (COS-7 cells; [8]): 2832 RLU
RLU (luciferase) (COS-7 cells; [9]): 1702 RLU
RLU (luciferase) (COS-7 cells; [10]): 200447 RLU
RLU (luciferase) (COS-7 cells; [11]): 17203 RLU
RLU (luciferase) (COS-7 cells; [12]): 23503 RLU
Enhancement levels (β-galactosidase activity) (Human fibroblasts [5]): 5-8 fold

K16CGYGPKKKRKVGGGGRGDSP (KKKKKKKKKKKKKKKKGGCGYGPKKKRKVGGKFTIVF) [K16NLSRGD]
Enhancement-Fold (DMRIE-C transfections at peak activity) (K562 cells): 1 Fold
Enhancement-Fold (DMRIE-C transfections at peak activity) (Jurkat cells): 1 Fold

sp-TAT: Tat peptide CGYGRKKRRQRRRG with the DNA-binding group carboxyspermine on the N-terminus (carboxyspermine-CGYGRKKRRQRRRG)
ng b-Gal per cm2 (NIH/3T3 cells): 0.06 ng b-Gal per cm2
ng b-Gal per ug Protein (NIH/3T3 cells): 0.00 ng b-Gal per ug Protein
